{"source": "patent US8632789B2", "about": "“System and method for delivery of DNA-binding chemotherapy drugs using nanoparticles” (Syracuse University, priority 2010, dated 2014)", "assay": "Thermal denaturation (melting) of DNA-capped AuNP by UV-vis at 260 nm as a function of DOX loading", "format": "physicochemical", "settings": "control studies, r=12; [DOX]=5.9 μM; [AuNP]=13.7 nM", "experimental": "To probe the uptake of DOX via intercalation to 1ab-AuNP, we investigated the thermal denaturation of the 1ab strands by measuring increase in extinction at 260 nm using UV-visible spectroscopy (UV-vis).\nWe next utilized the 1ab- or 2ab-AuNP prepared above, with dsDNA-functionalization, for drug (DOX) loading. For each DOX binding and melting experiment, 1ab- or 2ab-AuNP were incubated for 40 min with DOX at specific ratios, r=[DOX]/[1ab/2ab]. In this study, we explored r=0-12, based on the number of 1ab per AuNP, as well as the number of binding sites at each 1ab. Next, each DOX-1ab-AuNP was analyzed via thermal denaturation melting experiments using temperature controlled UV-vis at Abs=260 nm and a heating rate of 1° C./min from 25° C. to 80° C. Each melting temperature was taken as the maximum of a peak-fitted first derivative plot of its corresponding melting curve (using PeakFit® Peak Separation and Analysis Software, V.4.12).\nUV-visible Absorption (UV-vis): The UV-vis measurements were collected on a Varian Cary100 Bio UV-vis spectrophotometer between 200-900 nm. The instrument is equipped with an 8-cell automated holder with high precision Peltier heating controller."}
{"smiles": "COc1cccc2c1C(=O)c1c(O)c3c(c(O)c1C2=O)C[C@@](O)(C(=O)CO)C[C@@H]3O[C@H]1C[C@H](N)[C@H](O)[C@H](C)O1", "note": "[DOX, doxorubicin]", "values": [{"measurement": "Cooperative melting in the temperature range of ~55-65° C.", "value": "not observed"}]}
